From patent US8841321B2, “Quinoline derivatives as antibacterial agents” (Janssen Pharmaceutica NV, priority 2005, dated 2014)
Values after ≈ are worked out from the molar mass of the structure shown.

Assays:
Assay in all cases: Microtitre plate assay, IC90 determination
Format in all cases: cell-based
[1] = test system: STA RMETH (methicilline resistant Staphylococcus aureus (MRSA), a clinical isolate from the University of Antwerp)
[2] = test system: STA 29213 (Staphylococcus aureus (ATCC29213)); details: Staphylococcus aureus (ATCC29213)
Method in brief: (§1)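 Growth-inhibition endpoint: resazurin added 3 h after inoculation, plates incubated overnight, fluorescence at 530/590 nm after 24 h at 37 °C. Inocula of roughly 10–60 CFU per well in Mueller-Hinton medium; compounds titrated five-fold. IC90 reported as μg/ml.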

[3] = test system: SPN 6305 (Streptococcus pneumoniae (ATCC6305)); details: Streptococcus pneumoniae (ATCC6305)
Method in brief: as §1

| Compound | IC90 (μg/ml) STA RMETH [1] | IC90 (μg/ml) STA 29213 [2] | IC90 (μg/ml) SPN 6305 [3] |
| --- | --- | --- | --- |
| COc1nc2c(C)c(Br)ccc2cc1C(c1ccccc1)C(O)(CCCCN(C)C)c1ccc2ccccc2c1 (racemic) [Compound 80] | 2.38 µg/mL (≈ 3.98 µM) | 1.89 µg/mL (≈ 3.16 µM) | 2.12 µg/mL (≈ 3.55 µM) |
| COc1nc2ccc(-c3ccco3)cc2cc1C(c1ccccc1)C(O)(CCCCN(C)C)c1ccccc1 (racemic) [Compound 82] | 10.39 µg/mL (≈ 20 µM) | 1.65 µg/mL (≈ 3.17 µM) | 1.65 µg/mL (≈ 3.17 µM) |
| COc1nc2ccc(-c3ccco3)cc2cc1C(c1ccccc1)C(O)(CCCCN(C)C)c1ccccc1 (racemic) [Compound 83] | 5.21 µg/mL (≈ 10 µM) | 1.65 µg/mL (≈ 3.17 µM) | 1.65 µg/mL (≈ 3.17 µM) |
| COc1nc2ccc(Br)cc2cc1C(c1ccccc1)C(O)(CCCCN(C)C)c1cccc(F)c1 (racemic) [Compound 84] | 11 µg/mL (≈ 19.9 µM) | 1.74 µg/mL (≈ 3.16 µM) | 9.81 µg/mL (≈ 17.8 µM) |
| CCN(CC)CCCCC(O)(c1ccc2ccccc2c1)C(c1ccccc1)c1cc2cc(Br)ccc2nc1OC (racemic) [Compound 85] | 12.2 µg/mL (≈ 19.9 µM) | 1.93 µg/mL (≈ 3.16 µM) | 1.93 µg/mL (≈ 3.16 µM) |
| CCN(CC)CCCCC(O)(c1ccc2ccccc2c1)C(c1ccccc1)c1cc2cc(Br)ccc2nc1OC (racemic) [Compound 86] | 2.17 µg/mL (≈ 3.55 µM) | 2.17 µg/mL (≈ 3.55 µM) | 2.43 µg/mL (≈ 3.97 µM) |
| CSc1nc2ccc(Br)cc2cc1C(c1ccccc1)C(O)(CCCCN(C)C)c1ccc2c(c1)OCO2 (racemic) [Compound 87] | 2.36 µg/mL (≈ 3.98 µM) | 1.88 µg/mL (≈ 3.17 µM) | 2.36 µg/mL (≈ 3.98 µM) |
| COc1nc2ccc(Br)cc2cc1C(c1ccccc1)C(O)(CCCCN1CCCCC1)c1ccc2ccccc2c1 (racemic) [Compound 96] | 9.88 µg/mL (≈ 15.8 µM) | 4.42 µg/mL (≈ 7.09 µM) | 2.21 µg/mL (≈ 3.54 µM) |
| COc1nc2ccc(Br)cc2cc1C(c1ccccc1)C(O)(CCCCN1CCNCC1)c1ccccc1 (racemic) [Compound 104] | 12.86 µg/mL (≈ 22.4 µM) | 1.82 µg/mL (≈ 3.17 µM) | 2.04 µg/mL (≈ 3.55 µM) |
| COc1nc2ccc(Br)cc2cc1C(c1ccccc1)C(O)(CCCCN1CCNCC1)c1ccccc1 (racemic) [Compound 105] | 11.46 µg/mL (≈ 19.9 µM) | 2.04 µg/mL (≈ 3.55 µM) | 2.29 µg/mL (≈ 3.99 µM) |
| COc1nc2ccc(Br)cc2cc1C(c1ccccc1)C(O)(CCCCN1CCCCC1)CC(C)C (racemic) [Compound 122] | 11.05 µg/mL (≈ 20 µM) | 1.75 µg/mL (≈ 3.16 µM) | 1.96 µg/mL (≈ 3.54 µM) |
| COc1nc2ccc(Br)cc2cc1C(c1ccccc1)C(O)(CCCCN(C)C(C)C)c1ccccc1 (single isomer, unassigned) [Compound 91] | 12.57 µg/mL (≈ 22.4 µM) | 2.24 µg/mL (≈ 3.99 µM) | 2.51 µg/mL (≈ 4.47 µM) |
| COc1nc2ccc(Br)cc2cc1C(c1ccccc1)C(O)(CCCCN1CCN(C)CC1)CCC1CCCCC1 (single isomer, unassigned) [Compound 126] | 5.55 µg/mL (≈ 8.91 µM) | 4.41 µg/mL (≈ 7.08 µM) | 2.21 µg/mL (≈ 3.55 µM) |
| COc1nc2ccc(Br)cc2cc1C(c1ccccc1)C(O)(CCCCN(C)C)CCc1ccccc1 (single isomer, unassigned) [Compound 131] | 11.2 µg/mL (≈ 19.9 µM) | 1.78 µg/mL (≈ 3.17 µM) | 2.24 µg/mL (≈ 3.99 µM) |
| CCN(CC)CCCCC(O)(CCc1ccccc1)C(c1ccccc1)c1cc2cc(Br)ccc2nc1OC (single isomer, unassigned) [Compound 132] | 11.76 µg/mL (≈ 19.9 µM) | 2.09 µg/mL (≈ 3.54 µM) | 2.09 µg/mL (≈ 3.54 µM) |
| COc1nc2ccc(Br)cc2cc1C(c1ccccc1)C(O)(CCCCN1CCCCC1)CCc1ccccc1.Cl (single isomer, unassigned) [Compound 133] | 12 µg/mL | 1.9 µg/mL | 2.13 µg/mL |
